One data set concerns A-549. To be noted: literature; cited from earlier work.
Another data set deals with P388. To be noted: literature; cited from earlier work.
Another data set has as its system MDA-MB-231. The format is cell-based. To be noted: for GI50 / TGI: MDA-MB-231, 48 hours exposure, SRB; for TGI: total growth inhibition (cytostatic effect). From the text:
(§1) The finality of these assays is to interrupt the growth of an “in vitro” tumor cell culture by means of a continued exhibition of the cells to the sample to be testing.
(§2) Inhibition of Cell Growth by Colorimetric Assay
(§3) A colorimetric type of assay, using sulforhodamine B (SRB) reaction has been adapted for a quantitative measurement of cell growth and viability [following the technique described by Philip Skehan et al. (1990), New calorimetric cytotoxicity assay for anticancer drug screening, J. Natl. Cancer Inst., 82:1107-1112].
(§4) This form of assay employs 96 well cell culture microplates of 9 mm diameter (Faircloth et al. Methods in cell science, (1988), 11(4), 201-205; Mosmann et al, Journal of Immunological. Methods (1983), 65(1-2), 55-63). Most of the cell lines are obtained from American Type Culture Collection (ATCC) derived from different human cancer types.
(§5) Cells are maintained in RPMI 1640 10% FBS, supplemented with 0.1 g/L penicillin and 0.1 g/L streptomycin sulphate and then incubated at 37° C., 5% CO2 and 98% humidity. For the experiments, cells were harvested from subconfluent cultures using trypsin and resuspended in fresh medium before plating.
(§6) Cells are seeded in 96 well microtiter plates, at 5×10^3 cells per well in aliquots of 195 μL medium, and they are allowed to attach to the plate surface by growing in drug free medium for 18 hours. Afterward, samples are added in aliquots of 5 μL in a ranging from 10 to 10^−8 μg/mL, dissolved in DMSO:EtOH:PBS (0.5:0.5:99). After 48 hours exposure, the antitumor effect is measured by the SRB methodology: cells are fixed by adding 50 μL of cold 50% (wt/vol) trichloroacetic acid (TCA) and incubated for 60 minutes at 4° C. Plates are washed with deionised water and dried. 100 μL of SRB solution (0.4% wt/vol in 1% acetic acid) is added to each microtiter well and incubated for 10 minutes at room temperature. Unbound SRB is removed by washing with 1% acetic acid. Plates are air dried and bound stain is solubilized with Tris buffer. Optical densities are read on an automated spectrophotometric plate reader at a single wavelength of 490 nm.
(§7) The values for mean+/−SD of data from triplicate wells are calculated. Some parameters for cellular responses can be calculated: GI=growth inhibition, TGI=total growth inhibition (cytostatic effect) and LC=cell killing (cytotoxic effect).

The test system of a further data set is HT29. The format is cell-based. Particulars: for GI50 / TGI: HT29, 48 hours exposure, SRB; for TGI: total growth inhibition (cytostatic effect).
Text: as §1, §2, §3, §4, §5, §6, §7

The next data set has as its system A549. The format is cell-based. Particulars: for GI50 / TGI: A549, 48 hours exposure, SRB; for TGI: total growth inhibition (cytostatic effect).
Text: as §1, §2, §3, §4, §5, §6, §7

The test system of another data set is IGROV1 tumor cell line. Particulars: Jiang et al. 2001; cited from earlier work.
The next data set concerns HOP-92 cancer lines. To be noted: Jiang et al. 2001; cited from earlier work.
The subject of the next data set is CCRF-CEM cancer lines. To be noted: Jiang et al. 2001; cited from earlier work.
Another data set has as its system HT-29. To be noted: Sun and Sakemi 1991; cited from earlier work.

As a reminder, the IC50 is the point on the concentration scale where inhibition reaches its midpoint. Broadly, the CC50 is the concentration giving 50% cytotoxicity. A high value points to better tolerance by the cells. By GI50 is commonly meant the concentration giving 50% growth inhibition.

6-hydroxydiscodermindole: the IC50 was over 5 µg/mL in the data set with A-549 and 4.6 µg/mL in the data set on P388.
As to `CC(=O)N=C1NCCC(c2c[nH]c3ccc(Br)cc23)N1` (single isomer, unassigned) [Compound II], in the data set on MDA-MB-231, the CC50 was 6260 nM, the GI50 worked out at 418 nM and the TGI was 1.52E−6 Molar. In the data set on HT29, this compound gave a GI50 of 388 nM and a TGI of 5.67E−7 Molar. The compound also yielded a GI50 in the data set on A549 of 656 nM.
Turning to `COn1cc(C2CCNC(=NC(C)=O)N2)c2cc(Br)ccc21` (single isomer, unassigned) [Compound IV], in the data set with MDA-MB-231, the CC50 stood at 5200 nM, the GI50 came to 411 nM and the TGI worked out at 1.37E−6 Molar. In the data set on HT29, this compound gave a CC50 of 767 nM, a GI50 of 329 nM and a TGI of 4.65E−7 Molar. In the data set on A549, the GI50 was 630 nM and the TGI stood at 7.12E−7 Molar.
Turning to `COn1cc(C2CCNC(=NC(C)=O)N2)c2cc(Br)c(Br)cc21` (single isomer, unassigned) [Compound VI], in the data set on MDA-MB-231, the midpoint of cytotoxicity, the CC50, lay at 4950 nM; the concentration for 50% growth inhibition (GI50) was 811 nM; the TGI turned out to be 1.98E−6 Molar. Moreover, in the data set on HT29, the CC50 was found to be 2480 nM, growth was halved (GI50) at 473 nM and the TGI is listed as 9.23E−7 Molar. In addition, in the data set on A549, the CC50 came to 1150 nM, the GI50 stood at 1310 nM and the TGI came to 4.05E−6 Molar.
Consider `COn1cc(C2CCNC(=N)N2)c2cc(Br)c(Br)cc21` (single isomer, unassigned) [Compound V], for which the GI50 came to 7960 nM in the data set with MDA-MB-231, 7960 nM in the data set with HT29 and 8700 nM with A549. Moreover, the values for the TGI in the data set with MDA-MB-231 and in the data set with HT29 were 2.06E−5 Molar and 1.74E−5 Molar, respectively.
As for `C1=CN(c2c[nH]c3ccccc23)C(c2c[nH]c3ccccc23)N=C1` (stereo not drawn) [compound 8, 2,3-bis(3-indolyl)pyrimidine], the GI50 with IGROV1 tumor cell line is under 10 nM.
For the compound `COc1nc(-c2c[nH]c3ccccc23)cnc1N` [compound 19, 2-amino-3methoxyl-5-(3′-indolyl)pyrazine], the GI50 in the data set on HOP-92 cancer lines was 30 nM; in the data set on CCRF-CEM cancer lines, 810 nM.
Regarding discodermindole, the concentration for half-maximal inhibition (IC50) is 12 µg/mL with HT-29, 4.6 µg/mL with A-549 and 1.8 µg/mL in the data set with P388.

(Values after patent publication US20100048596A2, “Indole Derivatives as Antitumoral Compounds” (Pharma Mar, S.A., priority 2005, published 2010).)
